According to US20240383904A1, “HETEROCYCLIC COMPOUNDS” (Hoffmann-La Roche Inc., priority 2021, published 2024):

target: T1, MAGL (Homo sapiens, UniProt Q99685); test: 2-AG assay: MAGL inhibitory activity by hydrolysis of 2-arachidonoylglycerol to arachidonic acid, followed by mass spectrometry; assay type: biochemical; details: 15 min preincubation, 30 min reaction at RT, 8 μM 2-arachidonoylglycerol
T1 sequence (Q99685 1-303): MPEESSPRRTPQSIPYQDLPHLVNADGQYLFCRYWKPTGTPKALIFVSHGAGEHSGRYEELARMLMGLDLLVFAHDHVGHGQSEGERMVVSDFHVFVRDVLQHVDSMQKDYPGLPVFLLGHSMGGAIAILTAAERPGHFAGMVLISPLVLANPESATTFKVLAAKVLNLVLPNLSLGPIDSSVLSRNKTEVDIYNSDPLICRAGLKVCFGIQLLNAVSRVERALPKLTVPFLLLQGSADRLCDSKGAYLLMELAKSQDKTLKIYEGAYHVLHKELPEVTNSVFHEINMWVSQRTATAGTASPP

| Structure (SMILES) | IC50 [nM] |
| --- | --- |
| N=[S@@](=O)(c1cccc(CC2CC3(C2)CN(C(=O)N2CC4(CCC(=O)N4)C2)C3)c1)C(F)(F)F [Example 289, 2-[6-[[3-(trifluoromethylsulfoni-midoyl)phenyl]methyl]-2-azaspiro[3.3]heptane-2-carbonyl]-2,5-diazaspiro[3.4]octan-6-one] | 0.44 |
| N=[S@@](=O)(c1cccc(CC2CC3(C2)CN(C(=O)N2CC4(CCCC(=O)N4)C2)C3)c1)C(F)(F)F [Example 290, 2-[6-[[3-(trifluoromethylsulfoni-midoyl)phenyl]methyl]-2-azaspiro[3.3]heptane-2-carbonyl]-2,5-diazaspiro[3.5]nonan-6-one] | 45.6 |
| N=[S@@](=O)(c1cccc(CC2CC3(C2)CN(C(=O)N2CC4(COCC(=O)N4)C2)C3)c1)C(F)(F)F [Example 291, 2-[6-[[3-(trifluoromethylsulfoni-midoyl)phenyl]methyl]-2-azaspiro[3.3]heptane-2-carbonyl]-8-oxa-2,5-diazaspiro[3.5]nonan-6-one] | 1.27 |
| N=[S@](=O)(c1cccc(CC2CC3(C2)CN(C(=O)N2CC4(CCC(=O)N4)C2)C3)c1)C(F)(F)F [Example 292, 2-[6-[[3-(trifluoromethylsulfoni-midoyl)phenyl]methyl]-2-azaspiro[3.3]heptane-2-carbonyl]-2,5-diazaspiro[3.4]octan-6-one] | 1.29 |
| N=[S@](=O)(c1cccc(CC2CC3(C2)CN(C(=O)N2CC4(CCCC(=O)N4)C2)C3)c1)C(F)(F)F [Example 293, 2-[6-[[3-(trifluoromethylsulfoni-midoyl)phenyl]methyl]-2-azaspiro[3.3]heptane-2-carbonyl]-2,5-diazaspiro[3.5]nonan-6-one] | 69.4 |
| N=[S@](=O)(c1cccc(CC2CC3(C2)CN(C(=O)N2CC4(COCC(=O)N4)C2)C3)c1)C(F)(F)F [Example 294, 2-[6-[[3-(trifluoromethylsulfoni-midoyl)phenyl]methyl]-2-azaspiro[3.3]heptane-2-carbonyl]-8-oxa-2,5-diazaspiro[3.5]nonan-6-one] | 2.15 |
| O=C1CCC2(CN(C(=O)N3CC4(CC(Cc5ccc(S(=O)(=O)C(F)(F)F)cc5)C4)C3)C2)N1 [Example 295, 2-[6-[[4-(trifluoromethylsulfonyl)phenyl]methy]-2-azaspiro[3.3]heptane-2-carbonyl]-2,5-diazaspiro[3.4]octan-6-one] | 0.07 |
| O=C1COCC2(CN(C(=O)N3CC4(CC(Cc5ccc(S(=O)(=O)C(F)(F)F)cc5)C4)C3)C2)N1 [Example 296, 2-[6-[[4-(trifluoromethylsulfonyl)phenyl]methyl]-2-azaspiro[3.3]heptane-2-carbonyl]-8-oxa-2,5-diazaspiro[3.5]nonan-6-one] | 0.15 |
| N=S(=O)(c1cccc(OC(F)(F)F)c1)C1CC2(C1)CN(C(=O)N1CC3(CCC(=O)N3)C1)C2 (stereo not shown) [Example 297, 2-[6-[[3-(trifluoromethoxy)phenyl]sulfonimidoyl]-2-azaspiro[3.3]heptane-2-carbonyl]-2,5-diazaspiro[3.4]octan-6-one] | 75.9 |
| N=S(=O)(c1cc(F)cc(CC2CC3(C2)CN(C(=O)N2CC4(CCC(=O)N4)C2)C3)c1)C(F)(F)F (stereo not shown) [Example 298, 2-[6-[[3-fluoro-5-(trifluoromethylsulfoni-midoyl)phenyl]methyl]-2-azaspiro[3.3]heptane-2-carbonyl]-2,5-diazaspiro[3.4]octan-6-one] | 0.83 |
| O=C1CCC2(CN(C(=O)N3CC4(CC(Oc5cncc(C(F)(F)F)c5)C4)C3)C2)N1 [Example 299, 2-[6-[[5-(trifluoromethyl)-3-pyridyl]oxy]-2-azaspiro[3.3]heptane-2-carbonyl]-2,5-diazaspiro[3.4]octan-6-one] | 63.5 |
| O=C1CCC2(CN(C(=O)N3CC4(CC(Cn5ncc(C(F)(F)F)n5)C4)C3)C2)N1 [Example 300, 2-[6-[[4-(trifluoromethyl)triazol-2-yl]methyl]-2-azaspiro[3.3]heptane-2-carbonyl]-2,5-diazaspiro[3.4]octan-6-one] | 47.4 |
| N#Cc1ccc(OC2CC3(C2)CN(C(=O)N2CC4(CCC(=O)N4)C2)C3)cc1C(F)(F)F [Example 301, 4-[[2-(6-oxo-2,5-diazaspiro[3.4]octane-2-carbonyl)-2-azaspiro[3.3]heptan-6-yl]oxy]-2-(trifluoromethyl)benzoni-trile] | 15.4 |
| N#Cc1ccc(OC2CC3(C2)CN(C(=O)N2CC4(COCC(=O)N4)C2)C3)cc1C(F)(F)F [Example 302, 4-[[2-(6-oxo-8-oxa-2,5-diazaspiro[3.5]nonane-2-carbonyl)-2-azaspiro[3.3]heptan-6-yl]oxy]-2-(trifluoromethyl)benzoni-trile] | 68.8 |
| O=C1CCC2(CN(C(=O)N3CC4(CC(Oc5ccc(Cl)cn5)C4)C3)C2)N1 [Example 303, 2-[6-[(5-chloro-2-pyridyl)oxy]-2-azaspiro[3.3]heptane-2-carbonyl]-2,5-diazaspiro[3.4]octan-6-one] | 35.7 |
| Cn1cc(C(F)(F)F)c(CC2CC3(C2)CN(C(=O)N2CC4(CCC(=O)N4)C2)C3)n1 [Example 304, 2-[6-[[1-methyl-4-(trifluoromethyl)pyrazol-3-yl]methyl]-2-azaspiro[3.3]heptane-2-carbonyl]-2,5-diazaspiro[3.4]octan-6-one] | 3.73 |

| Structure (SMILES) | IC50 [nM] |
| --- | --- |
| Cc1nn(C)c(Cl)c1CN1CC2(C1)CN(C(=O)N1CC3(COC(=O)N3)C1)C2 [Example 305, 2-[6-[(5-chloro-1,3-dimethyl-pyrazol-4-yl)methyl]-2,6-diazaspiro[3.3]heptane-2-carbonyl]-7-oxa-2,5-diazaspiro[3.4]octan-6-one] | 20.9 |
| O=C1CCC2(CN(C(=O)N3CC4(CN(Cc5nc(C(F)(F)F)cs5)C4)C3)C2)N1 [Example 306, 2-[6-[[4-(trifluoromethyl)thiazol-2-yl]methyl]-2,6-diazaspiro[3.3]heptane-2-carbonyl]-2,5-diazaspiro[3.4]octan-6-one] | 287 |
| N#Cc1cc(OC2CC3(C2)CN(C(=O)N2CC4(CCC(=O)N4)C2)C3)ccc1C(F)(F)F [Example 307, 5-[[2-(6-oxo-2,5-diazaspiro[3.4]octane-2-carbonyl)-2-azaspiro[3.3]heptan-6-yl]oxy]-2-(trifluoromethyl)benzoni-trile] | 48.1 |
| O=C1CCC2(CN(C(=O)N3CC4(CC(Oc5nc(C(F)(F)F)cs5)C4)C3)C2)N1 [Example 308, 2-[6-[4-(trifluoromethyl)thiazol-2-yl]oxy-2-azaspiro[3.3]heptane-2-carbonyl]-2,5-diazaspiro[3.4]octan-6-one] | 49 |
| O=C1CCC2(CN(C(=O)N3CC4(CC(Oc5ccc(F)cn5)C4)C3)C2)N1 [Example 309, 2-[6-[(5-fluoro-2-pyridyl)oxy]-2-azaspiro[3.3]heptane-2-carbonyl]-2,5-diazaspiro[3.4]octan-6-one] | 94.9 |
| Cn1cc(OC2CC3(C2)CN(C(=O)N2CC4(CCC(=O)N4)C2)C3)c(C(F)(F)F)n1 [Example 310, 2-[6-[1-methyl-3-(trifluoromethyl)pyrazol-4-yl]oxy-2-azaspiro[3.3]heptane-2-carbonyl]-2,5-diazaspiro[3.4]octan-6-one] | 76.9 |
| O=C1CCC2(CN(C(=O)N3CC4(CC(Cn5cc(C6(C(F)(F)F)CC6)cn5)C4)C3)C2)N1 [Example 311, 2-[6-[[4-[1-(trifluoromethyl)cyclopro-pyl]pyrazol-1-yl]methyl]-2-azaspiro[3.3]heptane-2-carbonyl]-2,5-diazaspiro[3.4]octan-6-one] | 4.08 |
| O=C1CCC2(CN(C(=O)N3CC4(CC(Cc5cc(C(F)(F)F)ncn5)C4)C3)C2)N1 [Example 312, 2-[6-[[6-(trifluoromethyl)pyrimi-din-4-yl]methyl]-2-azaspiro[3.3]heptane-2-carbonyl]-2,5-diazaspiro[3.4]octan-6-one] | 54.9 |
| O=C1CCC2(CN(C(=O)N3CC4(CC(Oc5ncc(F)cc5Cl)C4)C3)C2)N1 [Example 313, 2-[6-[(3-chloro-5-fluoro-2-pyridyl)oxy]-2-azaspiro[3.3]heptane-2-carbonyl]-2,5-diazaspiro[3.4]octan-6-one] | 27.8 |
| O=C1CCC2(CN(C(=O)N3CC4(CC(Cc5ccnc(C(F)(F)F)n5)C4)C3)C2)N1 [Example 314, 2-[6-[[2-(trifluoromethyl)pyrimi-din-4-yl]methyl]-2-azaspiro[3.3]heptane-2-carbonyl]-2,5-diazaspiro[3.4]octan-6-one] | 8.62 |
| O=C1CCC2(CN(C(=O)N3CC4(CN(Cc5cnc(C(F)(F)F)s5)C4)C3)C2)N1 [Example 315, 2-[6-[[2-(trifluoromethyl)thiazol-5-yl]methyl]-2,6-diazaspiro[3.3]heptane-2-carbonyl]-2,5-diazaspiro[3.4]octan-6-one] | 206 |
| O=C1CCC2(CN(C(=O)N3CC4(CN(Cc5cn[nH]c5C(F)(F)F)C4)C3)C2)N1 [Example 316, 2-[6-[[5-(trifluoromethyl)-1H-pyrazol-4-yl]methyl]-2,6-diazaspiro[3.3]heptane-2-carbonyl]-2,5-diazaspiro[3.4]octan-6-one] | 553 |
| O=C1CCC2(CN(C(=O)N3CC4(CCN(Cc5ccc(C(F)(F)F)nn5)C4)C3)C2)N1 [Example 317, 2-[7-[[6-(trifluoromethyl)pyrida-zin-3-yl]methyl]-2,7-diazaspiro[3.4]octane-2-carbonyl]-2,5-diazaspiro[3.4]octan-6-one] | 1040 |
| O=C1NC2(CO1)CN(C(=O)N1CC3(C1)CN(c1cncc(F)c1)C3)C2 [Example 318, 2-[6-(5-fluoro-3-pyridyl)-2,6-diazaspiro[3.4]heptane-2-carbonyl]-7-oxa-2,5-diazaspiro[3.4]octan-6-one] | 146 |
| O=C1CCC2(CN(C(=O)N3CC4(CC(Cc5nc(C(F)(F)F)cs5)C4)C3)C2)N1 [Example 319, 2-[6-[[4-(trifluoromethyl)thiazol-2-yl]methyl]-2-azaspiro[3.3]heptane-2-carbonyl]-2,5-diazaspiro[3.4]octan-6-one] | 12.4 |
